{
  "source": "patent US5676931A",
  "about": "“Aerosol drug formulations for use with non CFC propellants” (Abbott Laboratories, priority 1996, dated 1997)",
  "assay": "Biodistribution of SLS MDI formulation: drug concentrations in lung and blood (Table 5)",
  "assay_type": "in vivo, male Sprague-Dawley rats",
  "details": "rats",
  "description": "A SLS (sodium lauryl sulfate) MDI formulation was tested in the following biodistribution study. One group of 13 male Sprague-Dawley rats, weighing 400 to 500 grams was used. This group of animals was dosed with a sodium lauryl sulfate-based R(+)-N-[3-[5-(4-fluorophenoxy)-2-furanyl]-1-methyl-2-propynyl]-N-hydroxyurea MDI formulation. Blood samples were collected at 0.083, 0.25, 0.5, 1, 2, 4 and 6 hours after dosing. One animal in each group was sacrificed at 0.25, 0.5, 1, 2, 4 and 6 hours after dosing for the determination of drug concentrations in the lung.",
  "note": "Where two headings read alike, the source gives them in different places.",
  "data": [
    {"compound": "C[C@H](C#Cc1ccc(Oc2ccc(F)cc2)o1)N(O)C(N)=O", "note": "[R(+)-N-[3-[5-(4-fluorophenoxy)-2-furanyl]-1-methyl-2-propynyl]-N-hydroxyurea]", "values": [
      {"measurement": "reproducibility of delivery", "setting": "MDI formulations in HFA-134a", "result": "reproducibly delivered"},
      {"measurement": "fraction of theoretically delivered drug (lung)", "setting": "SLS MDI, lung, time 0 hr, footnote c", "result": 26.7, "unit": "%"},
      {"measurement": "drug concentration recovered from the lung following delivery", "setting": "SLS-based MDI", "result": "about 67 μg/g"},
      {"measurement": "concentration at 0.083 h", "setting": "rat, blood, inhaled or intranasal, SLS MDI 10 mg/mL drug, 0.3% SLS in HFA134a, 0.083 hr (n = 12)", "result": "110 ± 80", "unit": "ng/mL"},
      {"measurement": "concentration at 0.25 h", "setting": "rat, blood, inhaled or intranasal, SLS MDI 10 mg/mL drug, 0.3% SLS in HFA134a, 0.25 hr (n = 12), read-out: Concentrations of Drug, Blood", "result": "140 ± 70", "unit": "ng/mL"},
      {"measurement": "concentration at 0.5 h", "setting": "rat, blood, inhaled or intranasal, SLS MDI 10 mg/mL drug, 0.3% SLS in HFA134a, 0.5 hr (n = 9), read-out: Concentrations of Drug, Blood", "result": "180 ± 80", "unit": "ng/mL"},
      {"measurement": "concentration at 1 h", "setting": "rat, blood, inhaled or intranasal, SLS MDI 10 mg/mL drug, 0.3% SLS in HFA134a, 1.0 hr (n = 8), read-out: Concentrations of Drug, Blood", "result": "180 ± 60", "unit": "ng/mL"},
      {"measurement": "concentration at 2 h", "setting": "rat, blood, inhaled or intranasal, SLS MDI 10 mg/mL drug, 0.3% SLS in HFA134a, 2.0 hr (n = 6), read-out: Concentrations of Drug, Blood", "result": "150 ± 60", "unit": "ng/mL"},
      {"measurement": "concentration at 4 h", "setting": "rat, blood, inhaled or intranasal, SLS MDI 10 mg/mL drug, 0.3% SLS in HFA134a, 4.0 hr (n = 4), read-out: Concentrations of Drug, Blood", "result": "200 ± 40", "unit": "ng/mL"},
      {"measurement": "concentration at 6 h", "setting": "rat, blood, inhaled or intranasal, SLS MDI 10 mg/mL drug, 0.3% SLS in HFA134a, 6.0 hr (n = 2), read-out: Concentrations of Drug, Blood", "result": "280 ± 270", "unit": "ng/mL"},
      {"measurement": "concentration at 0.25 h", "setting": "rat, lung, inhaled or intranasal, SLS MDI 10 mg/mL drug, 0.3% SLS in HFA134a, 0.25 hr, read-out: Concentrations of Drug, Lung", "result": "14500 ± 6330", "unit": "ng/g"},
      {"measurement": "concentration at 0.5 h", "setting": "rat, lung, inhaled or intranasal, SLS MDI 10 mg/mL drug, 0.3% SLS in HFA134a, 0.5 hr, read-out: Concentrations of Drug, Lung", "result": "12100 ± 4720", "unit": "ng/g"},
      {"measurement": "concentration at 1 h", "setting": "rat, lung, inhaled or intranasal, SLS MDI 10 mg/mL drug, 0.3% SLS in HFA134a, 1.0 hr, read-out: Concentrations of Drug, Lung", "result": "13100 ± 15700", "unit": "ng/g"},
      {"measurement": "concentration at 2 h", "setting": "rat, lung, inhaled or intranasal, SLS MDI 10 mg/mL drug, 0.3% SLS in HFA134a, 2.0 hr, read-out: Concentrations of Drug, Lung", "result": "16600 ± 13000", "unit": "ng/g"},
      {"measurement": "concentration at 4 h", "setting": "rat, lung, inhaled or intranasal, SLS MDI 10 mg/mL drug, 0.3% SLS in HFA134a, 4.0 hr, read-out: Concentrations of Drug, Lung", "result": "8540 ± 3100", "unit": "ng/g"},
      {"measurement": "concentration at 6 h", "setting": "rat, lung, inhaled or intranasal, SLS MDI 10 mg/mL drug, 0.3% SLS in HFA134a, 6.0 hr, read-out: Concentrations of Drug, Lung", "result": "9850 ± 2910", "unit": "ng/g"},
      {"measurement": "Concentrations of Drug, Lung", "setting": "SLS MDI 10 mg/mL drug, 0.3% SLS in HFA134a, 0 hr", "result": 66.74, "unit": "µg/g"}
    ]}
  ]
}
